Where two headings read alike, the source gives them in different places.
Key:
[1] = test system: MCF-7 human breast carcinoma line; test: MCF-7 GI50 determination (crystal violet); format: cell-based; conditions: Homo sapiens, MCF7, 96 h, read-out: MCF-7 Cells GI50
Description: Growth inhibition (GI50) values were measured on the human breast carcinoma line, MCF-7. MCF-7 cells were plated at 2×10^4 cells/well in 96 well plates and grown for 24 hours in drug free media. On day 2, test compounds were added to the plates at 10-fold dilutions. Four days later, cells were fixed by the addition of glutaraldehyde to 0.75%. After 30 min, the fixed cells were extensively rinsed with distilled water and dried at room temperature for one hour. The cells were then stained with a 0.2% crystal violet solution for one hour at room temperature. Unbound stain was removed by ten rinses with tap water and plates were allowed to air dry for 30 min. The crystal violet was then solubilized by the addition of 10% acetic acid for 15 min and quantified by measuring absorbance at 570 nm on a Molecular Devices microplate reader. Growth inhibition was calculated according to the following equation: GI=[…], where the optical density (OD) of the test well after 4 days of treatment was T, the OD of the wells in the control plate on day 0 was T0. Plots of percent growth inhibition versus inhibitor concentration were used to determine the GI50.

[2] = test system: HeLa S-3 human cervical carcinoma cell line; test: HeLa GI50 determination (SRB); format: cell-based; conditions: Homo sapiens, HeLa S3, 48 h, read-out: HeLa Cells GI50
Description: Growth inhibition (GI50) values were measured on the human cervical carcinoma cell line, HeLa S-3, which were selected for growth on plastic. The HeLa cell assay was based on the description of Skehan et al., J. Natl. Cancer Inst., 82:1107-12 (1990), which is hereby incorporated by reference in its entirety. HeLa cells were plated at 2×10^4 cells/well in 96 well plates. One day later, a control plate was fixed by the addition of TCA to 5%. After five rinses with tap water, the plate was air-dried and stored at 4° C. Test compounds were added to the remaining plates at 10-fold dilutions. Two days later, all plates were fixed as described above. Cells were then stained by the addition of 100 μL per well of 0.4% sulforhodamine B (SRB) in 1% acetic acid for 30 min at 4° C. Wells were then quickly rinsed 5× with 1% acetic acid and allowed to air dry. The SRB was then solubilized by the addition of 100 μL per well of unbuffered 10 mM Tris base. Dye was quantified by measuring absorbance at 490 nm on a Molecular Devices microplate reader. Growth inhibition was calculated according to the following equation: GI=100×(T−T0)/(C−T0), where the optical density (OD) of the test well after 2 days of treatment was T, the OD of the wells in the control plate on day 0 was T0 and C was the OD of untreated wells. Plots of percent growth inhibition versus inhibitor concentration were used to determine the GI50.

[3] = MCF-7, 4 days of treatment, crystal violet
[4] = HeLa S-3, 2 days of treatment, SRB

Row | SMILES | GI50 [1, 3] [nM] | GI50 [2, 4] [nM] | GI50 [1] [nM] | GI50 [2] [nM]
1 | C=Cc1ccc2[nH]c3c(c2c1)CN1CC(CC)=C[C@@H](C1)C[C@]3(C(=O)OC)c1cc2c(cc1OC)N(C)[C@H]1[C@@](O)(C(=O)OC)[C@H](OC(C)=O)C3C(CC)=CCN4CC[C@]21[C@H]34 (stereo partly drawn) [Example 3, 11′-vinylvinorelbine] | 7 | 3 | – | –
2 | CCCC(=O)/C=C/c1ccc2[nH]c3c(c2c1)CN1CC(CC)=C[C@@H](C1)C[C@]3(C(=O)OC)c1cc2c(cc1OC)N(C)[C@H]1[C@@](O)(C(=O)OC)[C@H](OC(C)=O)C3C(CC)=CCN4CC[C@]21[C@H]34 (stereo partly drawn) [Example 4, 11′-(3-oxohex-1-enyl) vinorelbine] | 300 | 400 | – | –
3 | CCC1=C[C@H]2CN(C1)Cc1c([nH]c3ccc(/C=C/C(=O)OC(C)(C)C)cc13)[C@@](C(=O)OC)(c1cc3c(cc1OC)N(C)[C@H]1[C@@](O)(C(=O)OC)[C@H](OC(C)=O)C4C(CC)=CCN5CC[C@]31[C@H]45)C2 (stereo partly drawn) [Example 5, 11′-(2-tert-butoxycarbonylvinyl) vinorelbine] | – | – | 600 | 300
4 | CCC1=C[C@H]2CN(C1)Cc1c([nH]c3ccc(/C=C/C(=O)O)cc13)[C@@](C(=O)OC)(c1cc3c(cc1OC)N(C)[C@H]1[C@@](O)(C(=O)OC)[C@H](OC(C)=O)C4C(CC)=CCN5CC[C@]31[C@H]45)C2 (stereo partly drawn) [Example 6, 11′-(carboxyvinyl) vinorelbine] | > 1000 | 800 | – | –
5 | CCC1=C[C@H]2CN(C1)Cc1c([nH]c3ccc(SCCC(=O)OC)cc13)[C@@](C(=O)OC)(c1cc3c(cc1OC)N(C)[C@H]1[C@@](O)(C(=O)OC)[C@H](OC(C)=O)C4C(CC)=CCN5CC[C@]31[C@H]45)C2 (stereo partly drawn) [Example 7, 11′-(methoxycarbonylethylsulfanyl) vinorelbine] | 400 | 200 | – | –
6 | CCC1=C[C@H]2CN(C1)Cc1c([nH]c3ccc(S)cc13)[C@@](C(=O)OC)(c1cc3c(cc1OC)N(C)[C@H]1[C@@](O)(C(=O)OC)[C@H](OC(C)=O)C4C(CC)=CCN5CC[C@]31[C@H]45)C2 (stereo partly drawn) [Example 8, 11′-thiovinorelbine] | 60 | 40 | – | –
7 | CCC1=C[C@H]2CN(C1)Cc1c([nH]c3ccc(SCC(=O)OC)cc13)[C@@](C(=O)OC)(c1cc3c(cc1OC)N(C)[C@H]1[C@@](O)(C(=O)OC)[C@H](OC(C)=O)C4C(CC)=CCN5CC[C@]31[C@H]45)C2 (stereo partly drawn) [Example 9, 11′-(methoxycarbonylmethylsulfanyl) vinorelbine] | 30 | 20 | – | –
8 | CCC1=C[C@H]2CN(C1)Cc1c([nH]c3ccc(SC)cc13)[C@@](C(=O)OC)(c1cc3c(cc1OC)N(C)[C@H]1[C@@](O)(C(=O)OC)[C@H](OC(C)=O)C4C(CC)=CCN5CC[C@]31[C@H]45)C2 (stereo partly drawn) [Example 10, 11′-(methylsulfanyl) vinorelbine] | 1 | 0.3 | – | –
9 | CCSc1ccc2[nH]c3c(c2c1)CN1CC(CC)=C[C@@H](C1)C[C@]3(C(=O)OC)c1cc2c(cc1OC)N(C)[C@H]1[C@@](O)(C(=O)OC)[C@H](OC(C)=O)C3C(CC)=CCN4CC[C@]21[C@H]34 (stereo partly drawn) [Example 11, 11′-(ethylsulfanyl) vinorelbine] | 20 | 5 | – | –
10 | CCC1=C[C@H]2CN(C1)Cc1c([nH]c3ccc(SCCCCO)cc13)[C@@](C(=O)OC)(c1cc3c(cc1OC)N(C)[C@H]1[C@@](O)(C(=O)OC)[C@H](OC(C)=O)C4C(CC)=CCN5CC[C@]31[C@H]45)C2 (stereo partly drawn) [Example 12, 11′-(4-hydroxybutylsulfanyl)vinorelbine] | 40 | 20 | – | –
11 | CCC1=C[C@H]2CN(C1)Cc1c([nH]c3ccc(SCCCO)cc13)[C@@](C(=O)OC)(c1cc3c(cc1OC)N(C)[C@H]1[C@@](O)(C(=O)OC)[C@H](OC(C)=O)C4C(CC)=CCN5CC[C@]31[C@H]45)C2 (stereo partly drawn) [Example 13, 11′-(3-hydroxypropylsulfanyl)vinorelbine] | 30 | 20 | – | –
12 | CCC1=C[C@H]2CN(C1)Cc1c([nH]c3ccc(SCCO)cc13)[C@@](C(=O)OC)(c1cc3c(cc1OC)N(C)[C@H]1[C@@](O)(C(=O)OC)[C@H](OC(C)=O)C4C(CC)=CCN5CC[C@]31[C@H]45)C2 (stereo partly drawn) [Example 14, 11′-(2-hydroxyethylsulfanyl)vinorelbine] | 50 | 30 | – | –
13 | CCC1=C[C@H]2CN(C1)Cc1c([nH]c3ccc(SCc4ccccc4F)cc13)[C@@](C(=O)OC)(c1cc3c(cc1OC)N(C)[C@H]1[C@@](O)(C(=O)OC)[C@H](OC(C)=O)C4C(CC)=CCN5CC[C@]31[C@H]45)C2 (stereo partly drawn) [Example 15, 11′-(2-fluorobenzylsulfanyl)vinorelbine] | 400 | 200 | – | –
14 | CCC1=C[C@H]2CN(C1)Cc1c([nH]c3ccc(SCc4ccccc4Cl)cc13)[C@@](C(=O)OC)(c1cc3c(cc1OC)N(C)[C@H]1[C@@](O)(C(=O)OC)[C@H](OC(C)=O)C4C(CC)=CCN5CC[C@]31[C@H]45)C2 (stereo partly drawn) [Example 16, 11′-(2-chlorobenzylsulfanyl)vinorelbine] | 500 | 300 | – | –
15 | CCC1=C[C@H]2CN(C1)Cc1c([nH]c3ccc(Sc4ccccc4)cc13)[C@@](C(=O)OC)(c1cc3c(cc1OC)N(C)[C@H]1[C@@](O)(C(=O)OC)[C@H](OC(C)=O)C4C(CC)=CCN5CC[C@]31[C@H]45)C2 (stereo partly drawn) [Example 17, 11′-(phenysulfanyl) vinorelbine] | 300 | 20 | – | –
16 | CCC1=C[C@H]2CN(C1)Cc1c([nH]c3ccc(Sc4cccc(O)c4)cc13)[C@@](C(=O)OC)(c1cc3c(cc1OC)N(C)[C@H]1[C@@](O)(C(=O)OC)[C@H](OC(C)=O)C4C(CC)=CCN5CC[C@]31[C@H]45)C2 (stereo partly drawn) [Example 18, 11′-(3-hydroxyphenysulfanyl)vinorelbine] | 300 | 30 | – | –
17 | CCC1=C[C@H]2CN(C1)Cc1c([nH]c3ccc([S+]([O-])CCO)cc13)[C@@](C(=O)OC)(c1cc3c(cc1OC)N(C)[C@H]1[C@@](O)(C(=O)OC)[C@H](OC(C)=O)C4C(CC)=CCN5CC[C@]31[C@H]45)C2 (stereo partly drawn) [Example 19, 11′-(3-hydroxyethylsulfinyl)vinorelbine] | > 1000 | 300 | – | –
18 | CCC1=C[C@H]2CN(C1)Cc1c([nH]c3ccc([S+]([O-])CCCO)cc13)[C@@](C(=O)OC)(c1cc3c(cc1OC)N(C)[C@H]1[C@@](O)(C(=O)OC)[C@H](OC(C)=O)C4C(CC)=CCN5CC[C@]31[C@H]45)C2 (stereo partly drawn) [Example 20, 11′-(3-hydroxypropylsulfinyl)vinorelbine] | 300 | 40 | – | –
19 | C#Cc1ccc2[nH]c3c(c2c1)CN1CC(CC)=C[C@@H](C1)C[C@]3(C(=O)OC)c1cc2c(cc1OC)N(C)[C@H]1[C@@](O)(C(=O)OC)[C@H](OC(C)=O)C3C(CC)=CCN4CC[C@]21[C@H]34 (stereo partly drawn) [Example 21, 11′-ethynylvinorelbine] | 5 | 0.4 | – | –
20 | CCCCC#Cc1ccc2[nH]c3c(c2c1)CN1CC(CC)=C[C@@H](C1)C[C@]3(C(=O)OC)c1cc2c(cc1OC)N(C)[C@H]1[C@@](O)(C(=O)OC)[C@H](OC(C)=O)C3C(CC)=CCN4CC[C@]21[C@H]34 (stereo partly drawn) [Example 22, 11′-hexynylvinorelbine] | 50 | 40 | – | –
21 | CCC1=C[C@H]2CN(C1)Cc1c([nH]c3ccc(C#CCC(C)C)cc13)[C@@](C(=O)OC)(c1cc3c(cc1OC)N(C)[C@H]1[C@@](O)(C(=O)OC)[C@H](OC(C)=O)C4C(CC)=CCN5CC[C@]31[C@H]45)C2 (stereo partly drawn) [Example 23, 11′-(4-methylpentynyl) vinorelbine] | 300 | 300 | – | –

Source: US7842802B2, “Vinorelbine derivatives” (priority 2003, dated 2010)
